The source of these data is publication PMC6333900, “Discovery of peptide ligands targeting a specific ubiquitin-like domain–binding site in the deubiquitinase USP11” (The Journal of Biological Chemistry, 2018).

No end group written: not given here.

The subject of assay [1] is USP11_DU^L208F/S242R. In words: Isothermal titration calorimetry, USP11_DU double mutant. The class given is binding, human. The note with it: 30 μM protein in PBS, peptide 300 or 600 μM, 25 °C, pocket-deficient double mutant, repeated at least twice. The procedure:
(§1) ITC data were measured on a MicroCal VP-ITC or a PEAQ ITC instrument to obtain the binding parameters for peptide ligand–USP11_DU interactions. The sample cell contained 30 μM protein in PBS buffer. Each peptide (at a concentration of 300 or 600 μM) was titrated into the sample cell in 8-μl (VP-ITC) or 2-μl (PEAK ITC) injections at a temperature of 25 °C. Spacing was typically 180 s, and a stirring speed of 300 rpm was used. The data were analyzed using NITPIC ([52]), SEDPHAT ([53]), and GUSSI software. ITC experiments were repeated at least twice independently apart from the USP15_DU, USP4_DU, and the FL-USP11 titrations with FYLIR peptide, which were conducted once.
On the technique in general: ITC needs no label: the signal is the heat of the interaction.

The target in assay [2] is T1, full-length USP11 (FL-USP11) (Homo sapiens, UniProt P51784).
T1 construct: FYLIR peptide (AEGEFYKLKIRTPR) titrated into full-length USP11 (FL-USP11); His tag (inferred from nickel-chelate purification and the pColdI vector); made in house; host or cells: E. coli BL21-CodonPlus (pColdI), grown 72 h at 10 °C
T1 sequence (P51784 44-963 limits assumed): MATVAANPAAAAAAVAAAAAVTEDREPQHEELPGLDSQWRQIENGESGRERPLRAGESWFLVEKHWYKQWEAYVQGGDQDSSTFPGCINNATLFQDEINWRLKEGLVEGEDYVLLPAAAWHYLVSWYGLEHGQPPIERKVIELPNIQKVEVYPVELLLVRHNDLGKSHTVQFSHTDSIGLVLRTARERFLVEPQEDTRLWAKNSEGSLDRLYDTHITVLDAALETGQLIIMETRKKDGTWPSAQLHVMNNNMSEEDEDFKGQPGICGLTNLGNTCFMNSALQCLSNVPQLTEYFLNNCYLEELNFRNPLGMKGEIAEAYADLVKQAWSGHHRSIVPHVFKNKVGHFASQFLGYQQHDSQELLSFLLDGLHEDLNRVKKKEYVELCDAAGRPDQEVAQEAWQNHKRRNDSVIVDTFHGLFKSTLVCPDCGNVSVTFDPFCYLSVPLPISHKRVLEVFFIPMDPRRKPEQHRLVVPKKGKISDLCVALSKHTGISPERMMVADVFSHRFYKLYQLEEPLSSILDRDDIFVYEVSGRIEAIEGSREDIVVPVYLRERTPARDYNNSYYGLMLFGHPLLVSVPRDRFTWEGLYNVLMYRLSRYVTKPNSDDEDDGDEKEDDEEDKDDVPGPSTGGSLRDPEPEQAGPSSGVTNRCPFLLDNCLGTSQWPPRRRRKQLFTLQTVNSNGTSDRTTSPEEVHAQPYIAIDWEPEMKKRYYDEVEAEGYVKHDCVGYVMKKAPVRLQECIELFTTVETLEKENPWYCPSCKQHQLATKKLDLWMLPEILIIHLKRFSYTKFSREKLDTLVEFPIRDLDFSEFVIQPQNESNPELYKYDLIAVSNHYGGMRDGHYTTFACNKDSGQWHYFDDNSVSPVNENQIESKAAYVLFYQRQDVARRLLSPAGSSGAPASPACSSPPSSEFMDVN
In words: Isothermal titration calorimetry, full-length USP11. The note with it: ITC, 30 μM protein in PBS, 25 °C, one site binding model; n=1; read-out: dissociation constant. Here is the method:
as §1

Assay [3] relates to Panc1 cells. In words: Cell uptake (flow cytometry), Panc1. The note with it: flow cytometry. It is filed as cell-based, human. Here is the method: Cells treated with GET-FYLIR or GET-Scrambled were analyzed on an Astrios cell sorter using a 488-nm […] laser (40,000 cells; gated on live cells by forward/side scatter). Gmean was used as the average cell intensity. All data sets were combined for the statistical analysis. A Sidak's multiple comparisons test was applied. N refers to the number of biological replicates.

Assay [4] deals with Panc1 cells. In words: Cell viability (Presto Blue assay), Panc1. It is filed as cell-based, human. The note with it: Panc1, up to 10 μM, 24 h, Presto Blue, n=4 biological repeats (Fig. S6). Here is the method: Cells were plated in 96-well plates (2.5 × 10^4 cells/well) and treated with GET-FYLIR (0–50 μM) for 24 h. Cells were also treated with GET-Scrambled as a control. After treatment, cells were washed with PBS and then incubated for 15 min at 37 °C with a 100-μl Presto Blue solution (10% Presto Blue, Invitrogen in Hanks' balanced salt solution, Sigma). Change in the fluorescence was measured using a plate reader with the excitation/emission wavelengths set at 560/590 nm (Infinite® 200 PRO, TECAN), with untreated cells used as a control. All data sets were combined for the statistical analysis. A Sidak's multiple comparisons test was applied. N refers to the number of biological replicates.

Assay [5] deals with USP11_DU (USP11 N-terminal DUSP–UBL domains). In words: Next-generation phage display enrichment (two-proportion Z test, round 3 of panning). The note with it: enrichment on USP11_DU vs unrelated His-tagged control protein (flagellin fragment), after three rounds of panning, gpVIII phage-displayed nonapeptide. It is filed as binding, human. An excerpt:
An NGPD approach was applied to the identification of USP11 ligands as schematically depicted in Fig. 1B. A randomized linear peptide library fused to the gpVIII protein was used to isolate peptides that interact with the USP11 N-terminal DU domains (DUSP and UBL domains in tandem; USP11_DU; Fig. 1A). After three biopanning rounds, phage ssDNA was extracted and purified, and peptide sequences were amplified and deep-sequenced. […] A graphical representation of the residue frequency within the motifs as computed by the Multiple EM for Motif Elicitation (MEME) algorithm ([33]) is shown in Fig. 1C. The thermodynamic binding parameters of synthetic peptides representative of both motifs, including the N-terminal phage protein sequence (AEGEF), AEGEFYKLKIRTPQ (referred to as FYLIR peptide) and AEGEFLELLKASRW (referred to as LXLL peptide), were determined by isothermal titration calorimetry (ITC). Peptides harboring either motif bound USP11_DU with dissociation constants of about 10 μM (8.86 ± 1.13 μM for AEGEFYKLKIRTPQ and 6.92 ± 2.25 μM for AEGEFLELLKASRW; Fig. 1D).
The peptide phage display library used for biopanning experiments (kindly provided by Professor Franco Felici, University of Molise, Italy; designated PC89VIII) is based on the PC89 phagemid vector ([50]) with a nonapeptide inserted at the N terminus of the phage major coat protein pVIII and a reported diversity of ∼10^7. The library was transformed into Escherichia coli TG1 supE thi-1 Δ(lac-proAB) Δ(mcrB-hsdSM)5(rK-mK) [F′traD36 proAB lacIqZΔM15], which was the strain used for all manipulations and phage rescue. Libraries were grown to mid-log phase (OD600 ∼0.6), superinfected with M13KO7 helper phage (Pharmacia LKB), and incubated overnight at 30 °C (250 rpm) to produce phage particles. Phage was harvested, and PEG was precipitated only for the first panning round. For all subsequent selection rounds (three in total), supernatant phage was used directly. Biopanning was carried out once, as described previously ([51]), and proteins were immobilized on cobalt beads (Dynabeads) (solution phase panning). A total of 100 μg of USP11_DU was immobilized for each round. In parallel, the phage isolated at each round against USP11_DU was also bound against an unrelated His-tagged control protein under the same conditions. This control protein was a fragment of flagellin, a virulence factor from E. coli O157:H7, amino acid residues 164–495, and the protein was used as it is unrelated to the target proteins and carried a C-terminal His tag. Bound phage were washed 10–20 times with PBS (10 mM phosphate buffer, pH 7.2–7.4, with 150 mM NaCl) plus 0.1% (v/v) Tween (PBST) and then PBS. Bound phage were eluted from the beads with 100 mM triethylamine and neutralized in 1 M Tris, pH 7.4. Half of the eluted phage was used for infection of TG1 cells, which were plated and used to make glycerol stocks.
The ssDNA of eluted phage for round 3 of selection against the USP11_DU target and the control protein was extracted and purified using the QIAprep Spin M13 kit. Subsequently, phage ssDNA was precipitated with ethanol and stored as a dry pellet to be used as a PCR template. For the amplification of the unknown peptide sequences, a two-step PCR strategy was followed, as described previously ([32]). The strategy produced an amplicon of ∼330 bp, and each sample contained a unique barcoded sequence. Each sample's DNA concentration was determined by the Agilent 2100 Bioanalyzer using the DNA 1000 kit. Based on the concentration readings for the peak of interest, samples were pooled in equal amounts, purified by the Agencourt AMPure XP kit, and run on a 2% (w/v) agarose gel. The band of ∼330 bp was excised from the gel and purified using the NucleoSpin Gel and PCR Clean-up kit. Finally, the concentration and size of the pooled DNA were measured on a Bioanalyzer. NGPD was carried out once for each round of panning. […]

For the substance “AEGEFLRLLNFTKP [peptide harboring motif 2 (LXLL)]”, in assay [1], the “binding by ITC” value is “abolished”.

With AEGEFYKLKIRTPR-NH2 [AEGEFYKLKIRTPR], in assay [2], the Kd is around 12.5 µM.

As for APKFEIRRGTYKLE [GET-Scrambled], the “uptake profile, NIH3T3 versus Panc1” value in assay [3] (1 μM and 5 μM, 1 or 24 h) was “no difference in the uptake profile between NIH3T3 and Panc1 cells”. For the same substance, the cellular delivery entry in assay [3] (NIH3T3 and Panc1, 1 and 5 μM) is “efficiently delivered”. Further, the cell viability result in assay [4] is listed as “no significant effect”.

CKLKIRTPQ: in assay [5], the Z score is given as 5.6.

Substance HKLKIRTPQ came in with a Z score in assay [5] of 5.5.

LALIKRQPL returned a Z score in assay [5] of 18.1.

Take LALLMRQRP: the Z score in assay [5] was 19.0.

As for LAMLTRGRP, in assay [5], the Z score is given as 3.0.

In assay [5], LELARRSPV came in with a Z score of 4.1.

LELLEASRW: the Z score in assay [5] was found to be 5.0.

Substance LELLKALRW came in with a Z score in assay [5] of 3.0.

For the substance LELLKAPRW, the Z score in assay [5] is listed as 3.6.

In the case of LELLKASRR, in assay [5], the Z score worked out at 4.8.

The substance LELLKASRW had a Z score in assay [5] of 108.7.

With LELLKVSRW, the Z score in assay [5] turned out to be 3.0.

LELLRASRW: the Z score in assay [5] is 4.6.

As for LELPKASRW, the Z score in assay [5] was found to be 4.5.

Substance LELVCRSPV had a Z score in assay [5] of 2.8.

LELVHRSPV: the Z score in assay [5] amounted to 4.1.

In assay [5], LELVRCSPV had a Z score of 3.2.

Take LELVRHSPV: in assay [5], the Z score is recorded as 3.0.

Substance LELVRRSPA showed a Z score in assay [5] of 3.7.

The substance LELVRRSPV yielded a Z score in assay [5] of 89.0.

LELVRRSSV registered a Z score in assay [5] of 3.0.

In turn, LEPVRRSPV returned a Z score in assay [5] of 4.1.

For LESLKASRW, the Z score in assay [5] worked out at 4.9.

The substance LGLLKASRW returned a Z score in assay [5] of 4.4.

In the case of LQLLALSRA, in assay [5], the Z score was 3.6.

With LQLLALSRT, the Z score in assay [5] worked out at 70.9.

On to LQLLAPSRT, for which the Z score in assay [5] worked out at 3.0.

In assay [5], LQLPALSRT yielded a Z score of 4.1.

As for LRLLALSRT, the Z score in assay [5] came to 4.4.

NKLKIRTPQ came in with a Z score in assay [5] of 2.8.

With PELLKASRW, the Z score in assay [5] was 3.6.

Consider PQLLALSRT, for which the Z score in assay [5] was 3.9.

Turning to YELKIRTPQ, in assay [5], the Z score is 4.6.

Substance YKLEIRTPQ had a Z score in assay [5] of 5.6.

In turn, YKLKIQTPQ displayed a Z score in assay [5] of 4.0.

Substance YKLKIRAPQ yielded a Z score in assay [5] of 7.9.

YKLKIRIPQ: the Z score in assay [5] amounted to 4.4.

YKLKIRTLQ showed a Z score in assay [5] of 3.7.

Turning to YKLKIRTPL, in assay [5], the Z score worked out at 3.2.

Substance YKLKIRTPQ gave a Z score in assay [5] of 168.4.

As to YKLKIRTPR, the Z score in assay [5] is given as 7.1.

Substance YKLKIRTSQ gave a Z score in assay [5] of 3.6.

YKLKTRTPQ registered a Z score in assay [5] of 4.5.

In assay [5], YKLKVRTPQ came in with a Z score of 5.7.

With YKLRIRTPQ, the Z score in assay [5] is recorded as 5.8.

Take YKPKIRTPQ: in assay [5], the Z score is reported as 6.6.

Substance YRLKIRTPQ gave a Z score in assay [5] of 5.5.
